{"source": "the supplement of paper PMC10307832", "test_in_all_cases": "relative viability (nuclei count vs DMSO), 5 days (fraction); higher = more cells survive", "key": {"[1]": {"compound": "C1CN(CCN1)C2=CC=C(C=C2)C3=CN4C(=C(C=N4)C5=CC=NC6=CC=CC=C56)N=C3 [DM3189]", "in_short": "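Hoechst staining, done together with fixation and permeabilisation, marked nuclei for 4× imaging and MetaXpress counting. This followed 5 days without medium change after lung cancer cell lines, kept overnight at 37 °C in 1536-well plates, were pinned with five library-drug doses (not always all listed) spaced by √10 on vehicle-anchored plates. Viability is the ratio of treated-well to vehicle-well nuclei, expressed as a median across plates. Plates passed only at control CV below 25% with at least one doubling.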"}, "[2]": {"compound": "C1CN(CCN1)C2=CC=C(C=C2)C3=CN4C(=C(C=N4)C5=CC=NC6=CC=CC=C56)N=C3 [DM3189] + O=C(c1cc(Cc2n[nH]c(=O)c3ccccc23)ccc1F)N1CCN(C(=O)C2CC2)CC1 [Olaparib] (partner 8 µM)", "in_short": "(§1)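 Medians of duplicate plates are given as relative viability. That measure is the nuclei count in treated wells divided by the count in vehicle wells. Counts were taken on 4× images of lung cancer cell lines in 1536-well plates, 5 days after pin-tool dosing the day after seeding with one drug alone or a fixed anchor-drug dose plus five library-drug doses (not always all listed) in √10 steps.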"}, "[3]": {"compound": "C1CN(CCN1)C2=CC=C(C=C2)C3=CN4C(=C(C=N4)C5=CC=NC6=CC=CC=C56)N=C3 [DM3189] + CS(=O)(=O)N1CCN(Cc2cc3nc(-c4cccc5[nH]ncc45)nc(N4CCOCC4)c3s2)CC1 [Pictilisib] (partner 1 µM)", "in_short": "as §1"}, "[4]": {"compound": "C1CN(CCN1)C2=CC=C(C=C2)C3=CN4C(=C(C=N4)C5=CC=NC6=CC=CC=C56)N=C3 [DM3189] + COc1cc2c(Oc3ccc(NC(=O)C4(C(=O)Nc5ccc(F)cc5)CC4)cc3F)ccnc2cc1OCCCN1CCOCC1 [Foretinib] (partner 0.25 µM)", "in_short": "as §1"}, "[5]": {"compound": "C1CN(CCN1)C2=CC=C(C=C2)C3=CN4C(=C(C=N4)C5=CC=NC6=CC=CC=C56)N=C3 [DM3189] + CC1(C)CCC(c2ccc(Cl)cc2)=C(CN2CCN(c3ccc(C(=O)NS(=O)(=O)c4ccc(N[C@H](CCN5CCOCC5)CSc5ccccc5)c(S(=O)(=O)C(F)(F)F)c4)cc3)CC2)C1 [Navitoclax] (partner 0.5 µM)", "in_short": "as §1"}, "[6]": {"compound": "C1CN(CCN1)C2=CC=C(C=C2)C3=CN4C(=C(C=N4)C5=CC=NC6=CC=CC=C56)N=C3 [DM3189] + CS(=O)(=O)CCNCc1ccc(-c2ccc3ncnc(Nc4ccc(OCc5cccc(F)c5)c(Cl)c4)c3c2)o1 [Lapatinib] (partner 2 µM)", "in_short": "as §1"}, "[7]": {"compound": "C1CN(CCN1)C2=CC=C(C=C2)C3=CN4C(=C(C=N4)C5=CC=NC6=CC=CC=C56)N=C3 [DM3189] + Cc1nc(NC(=O)N2CCC[C@H]2C(N)=O)sc1-c1ccnc(C(C)(C)C(F)(F)F)c1 [Alpelisib] (partner 2 µM)", "in_short": "as §1"}, "[8]": {"compound": "C1CN(CCN1)C2=CC=C(C=C2)C3=CN4C(=C(C=N4)C5=CC=NC6=CC=CC=C56)N=C3 [DM3189] + C[C@]1(O)C[C@@H](c2nc(-c3ccc4ccc(-c5ccccc5)nc4c3)c3c(N)nccn32)C1 [Linsitinib] (partner 1 µM)", "in_short": "as §1"}, "[9]": {"compound": "C1CN(CCN1)C2=CC=C(C=C2)C3=CN4C(=C(C=N4)C5=CC=NC6=CC=CC=C56)N=C3 [DM3189] + CC(C)C[C@H](NC(=O)[C@H](Cc1ccccc1)NC(=O)c1cnccn1)B(O)O [Bortezomib] (partner 0.002 µM)", "in_short": "as §1"}, "[10]": {"compound": "C1CN(CCN1)C2=CC=C(C=C2)C3=CN4C(=C(C=N4)C5=CC=NC6=CC=CC=C56)N=C3 [DM3189] + C[C@@H](Oc1cc(-c2cnn(C3CCNCC3)c2)cnc1N)c1c(Cl)ccc(F)c1Cl [Crizotinib] (partner 1 µM)", "in_short": "as §1"}}, "data": [{"cell line": "Calu-6", "values": [{"measurement": "relative viability", "setting": "[1]; 0.08 µM", "result": 1.03}, {"measurement": "relative viability", "setting": "[1]; 0.253 µM", "result": 0.966}, {"measurement": "relative viability", "setting": "[1]; 0.8 µM", "result": 0.812}, {"measurement": "relative viability", "setting": "[1]; 2.53 µM", "result": 1.03}, {"measurement": "relative viability", "setting": "[2]; first compound 0.08 µM", "result": 0.625}, {"measurement": "relative viability", "setting": "[2]; first compound 0.253 µM", "result": 0.529}, {"measurement": "relative viability", "setting": "[2]; first compound 0.8 µM", "result": 0.45}, {"measurement": "relative viability", "setting": "[2]; first compound 2.53 µM", "result": 0.608}, {"measurement": "relative viability", "setting": "[3]; first compound 0.08 µM", "result": 0.876}, {"measurement": "relative viability", "setting": "[3]; first compound 0.253 µM", "result": 0.658}, {"measurement": "relative viability", "setting": "[3]; first compound 0.8 µM", "result": 0.657}, {"measurement": "relative viability", "setting": "[3]; first compound 2.53 µM", "result": 0.692}, {"measurement": "relative viability", "setting": "[4]; first compound 0.08 µM", "result": 0.901}, {"measurement": "relative viability", "setting": "[4]; first compound 0.253 µM", "result": 0.768}, {"measurement": "relative viability", "setting": "[4]; first compound 0.8 µM", "result": 0.715}, {"measurement": "relative viability", "setting": "[4]; first compound 2.53 µM", "result": 0.765}, {"measurement": "relative viability", "setting": "[5]; first compound 0.08 µM", "result": 0.819}, {"measurement": "relative viability", "setting": "[5]; first compound 0.253 µM", "result": 0.678}, {"measurement": "relative viability", "setting": "[5]; first compound 0.8 µM", "result": 0.705}, {"measurement": "relative viability", "setting": "[5]; first compound 2.53 µM", "result": 0.486}, {"measurement": "relative viability", "setting": "[6]; first compound 0.08 µM", "result": 0.998}, {"measurement": "relative viability", "setting": "[6]; first compound 0.253 µM", "result": 0.905}, {"measurement": "relative viability", "setting": "[6]; first compound 0.8 µM", "result": 0.822}, {"measurement": "relative viability", "setting": "[6]; first compound 2.53 µM", "result": 0.885}, {"measurement": "relative viability", "setting": "[7]; first compound 0.08 µM", "result": 1.06}, {"measurement": "relative viability", "setting": "[7]; first compound 0.253 µM", "result": 0.855}, {"measurement": "relative viability", "setting": "[7]; first compound 0.8 µM", "result": 0.702}, {"measurement": "relative viability", "setting": "[7]; first compound 2.53 µM", "result": 0.77}, {"measurement": "relative viability", "setting": "[8]; first compound 0.08 µM", "result": 0.975}, {"measurement": "relative viability", "setting": "[8]; first compound 0.253 µM", "result": 0.958}, {"measurement": "relative viability", "setting": "[8]; first compound 0.8 µM", "result": 0.703}, {"measurement": "relative viability", "setting": "[8]; first compound 2.53 µM", "result": 0.763}, {"measurement": "relative viability", "setting": "[9]; first compound 0.08 µM", "result": 0.997}, {"measurement": "relative viability", "setting": "[9]; first compound 0.253 µM", "result": 0.941}, {"measurement": "relative viability", "setting": "[9]; first compound 0.8 µM", "result": 0.816}, {"measurement": "relative viability", "setting": "[9]; first compound 2.53 µM", "result": 0.784}, {"measurement": "relative viability", "setting": "[10]; first compound 0.08 µM", "result": 0.895}, {"measurement": "relative viability", "setting": "[10]; first compound 0.253 µM", "result": 0.788}, {"measurement": "relative viability", "setting": "[10]; first compound 0.8 µM", "result": 0.732}, {"measurement": "relative viability", "setting": "[10]; first compound 2.53 µM", "result": 0.544}]}, {"cell line": "EBC-1", "values": [{"measurement": "relative viability", "setting": "[1]; 0.08 µM", "result": 0.974}, {"measurement": "relative viability", "setting": "[1]; 0.253 µM", "result": 0.989}, {"measurement": "relative viability", "setting": "[1]; 0.8 µM", "result": 0.963}, {"measurement": "relative viability", "setting": "[1]; 2.53 µM", "result": 1.07}, {"measurement": "relative viability", "setting": "[2]; first compound 0.08 µM", "result": 0.858}, {"measurement": "relative viability", "setting": "[2]; first compound 0.253 µM", "result": 0.778}, {"measurement": "relative viability", "setting": "[2]; first compound 0.8 µM", "result": 0.71}, {"measurement": "relative viability", "setting": "[2]; first compound 2.53 µM", "result": 0.673}, {"measurement": "relative viability", "setting": "[3]; first compound 0.08 µM", "result": 0.419}, {"measurement": "relative viability", "setting": "[3]; first compound 0.253 µM", "result": 0.435}, {"measurement": "relative viability", "setting": "[3]; first compound 0.8 µM", "result": 0.344}, {"measurement": "relative viability", "setting": "[3]; first compound 2.53 µM", "result": 0.285}, {"measurement": "relative viability", "setting": "[4]; first compound 0.08 µM", "result": 0.11}, {"measurement": "relative viability", "setting": "[4]; first compound 0.253 µM", "result": 0.106}, {"measurement": "relative viability", "setting": "[4]; first compound 0.8 µM", "result": 0.0886}, {"measurement": "relative viability", "setting": "[4]; first compound 2.53 µM", "result": 0.0977}, {"measurement": "relative viability", "setting": "[5]; first compound 0.08 µM", "result": 0.48}, {"measurement": "relative viability", "setting": "[5]; first compound 0.253 µM", "result": 0.356}, {"measurement": "relative viability", "setting": "[5]; first compound 0.8 µM", "result": 0.478}, {"measurement": "relative viability", "setting": "[5]; first compound 2.53 µM", "result": 0.391}, {"measurement": "relative viability", "setting": "[6]; first compound 0.08 µM", "result": 0.228}, {"measurement": "relative viability", "setting": "[6]; first compound 0.253 µM", "result": 0.214}, {"measurement": "relative viability", "setting": "[6]; first compound 0.8 µM", "result": 0.214}, {"measurement": "relative viability", "setting": "[6]; first compound 2.53 µM", "result": 0.2}, {"measurement": "relative viability", "setting": "[7]; first compound 0.08 µM", "result": 0.864}, {"measurement": "relative viability", "setting": "[7]; first compound 0.253 µM", "result": 0.759}, {"measurement": "relative viability", "setting": "[7]; first compound 0.8 µM", "result": 0.817}, {"measurement": "relative viability", "setting": "[7]; first compound 2.53 µM", "result": 0.985}, {"measurement": "relative viability", "setting": "[8]; first compound 0.08 µM", "result": 0.993}, {"measurement": "relative viability", "setting": "[8]; first compound 0.253 µM", "result": 0.965}, {"measurement": "relative viability", "setting": "[8]; first compound 0.8 µM", "result": 0.869}, {"measurement": "relative viability", "setting": "[8]; first compound 2.53 µM", "result": 1.06}, {"measurement": "relative viability", "setting": "[9]; first compound 0.08 µM", "result": 0.63}, {"measurement": "relative viability", "setting": "[9]; first compound 0.253 µM", "result": 0.611}, {"measurement": "relative viability", "setting": "[9]; first compound 0.8 µM", "result": 0.483}, {"measurement": "relative viability", "setting": "[9]; first compound 2.53 µM", "result": 0.551}, {"measurement": "relative viability", "setting": "[10]; first compound 0.08 µM", "result": 0.196}, {"measurement": "relative viability", "setting": "[10]; first compound 0.253 µM", "result": 0.183}, {"measurement": "relative viability", "setting": "[10]; first compound 0.8 µM", "result": 0.164}, {"measurement": "relative viability", "setting": "[10]; first compound 2.53 µM", "result": 0.179}]}]}
